# Measurements from patent US20090137492A1 (priority 2006, published 2009).
# Where “and” joins values, the source holds several entries; their conditions need not be identical. Equal values may be shown once. Entries after “also recorded” stand apart in the source; their conditions may differ.
# How the values were obtained:
# [1] = system: B. anthracis Sterne spores; parameters: species or system Mice of the A/J strain; conditions: mouse, in vivo
# [2] = system: anthrax spores; parameters: species or system murine (A/J mice); conditions: mouse, in vivo
# [3] = system: IL-1beta; assay type: cell-based
# [4] = system: IL-10; assay type: cell-based
# [5] = system: IL-1beta, IL-6, IL-10, TNF-alpha, Toll-Like Receptors (TLRs), NODs, SOCS; assay type: cell-based
# [6] = system: IL-6; parameters: species or system cotton rat; conditions: rat, in vivo
# [7] = system: H3N2/Wuhan influenza virus; parameters: species or system cotton rat; conditions: rat, in vivo
# [8] = mouse, in vivo
substance,measurement,setting,value
"Sar^9, Met(O2)^11-Substance P [Viprovex]",inhibition of lethality,[1],dose dependent inhibition of lethality
same,treated animals that died,[1],2 of the 6
same,increase in survival rates,[2],240%
same,protection against anthrax-induced death,[2],partially protect against anthrax-induced death
same,"protection from death, time course",[2],clearly protected from death as early as 5 days post-exposure; also recorded: maintained survival from approximately day 10 onward
same,survival rate,[2],68.8% and 62.5%
same,"survival, of the animals that would otherwise have died",[2],20-70%
same,IL-1 mRNA increase relative to IL-6 increase,[3],28 ×
same,IL-10 mRNA increase relative to IL-6 increase,[4],21 ×
same,elevation of components of the host immune system,[5],"elevation of cytokines, interleukins, TLR, defensins and other components of immune surveillance; also recorded: elevate multiple components of the host immune system"
same,IL-6 levels in the lungs,[6],do not significantly increase
same,"Il-6, single animals",[6],1.623 and 1.253 and 2.458 and 2.167 and 3.013 and 0 and 2.416 and 7.483 and 1.791
same,efficacy against influenza virus infection,[7],provides therapeutic efficacy in animal models of infection by influenza virus; also recorded: more resistant to the effects of H3N2/Wuhan influenza virus
same,toxicity,[8],no toxicity was observed
